Reference: patent US20150164824A1, “METHODS AND COMPOSITIONS USEFUL FOR IMPROVING BONE AND JOINT HEALTH” (ABBOTT LABORATORIES, priority 2012, published 2015)

Assays:
[1] = test system: Human osteoclast precursors; test: OsteoLyse assay: osteoclast differentiation and collagen degradation in vitro; format: cell-based; conditions: relative to standard control wells (100%); day seven of culture; FIG. 1
Protocol: A 96-well OsteoLyse™ assay system (commercially available from Lonza Biosciences, Walkersville, Md.) was used for this evaluation. Specifically, a 96-well OsteoLyse™ plate was coated with fluorophore-derivatized human bone matrix (europium conjugated collagen). Human osteoclast precursors, at a density of 10,000/200 μl of differentiation medium (containing M-CSF and RANK Ligand) were seeded onto the surface of the plate. Triplicate cell culture wells were treated with one of: Curcumin in DMSO; Vitamin K2 in ethanol; combination of Curcumin and Vitamin K2; and alendronate (control). Cell culture wells with only differentiation medium were treated as standard control wells. After six days of culture, old medium was removed and 200 μl of fresh differentiation medium was added to all wells. Twenty-four hours later, on day seven of culture, 10 μl of medium supernatant was used for fluorescence measurement. For the measurement, 10 μl of medium supernatant was added to 100 μl of fluorophore-releasing agent (Lonza Bioscience, Walkersville, Md.) in a black-walled 96-well plate. The samples were briefly mixed and fluorescence was determined using a time-resolved fluorescence fluorimeter (Spectramax M5, available from Molecular Devices, Sunnyvale, Calif., with excitation at 340 nm and emission at 615 nm) over a 400-microsecond time period after an initial delay of 400 microseconds. Osteoclast differentiation in a standard control cell culture well was assumed to be 100% and relative osteoclast differentiation, with respect to control wells, in other cell culture wells was calculated and plotted on the bar graph shown in FIG. 1.

[2] = test system: Primary human osteoclast precursors; test: OsteoAssay plate / CalciFluor assay: bone resorption by osteoclasts; format: cell-based; conditions: relative to standard control cells; calcium release, day eight of culture; FIG. 2
Protocol: A 96-well OsteoAssay™ plate (commercially available from Lonza Biosciences, Walkersville, Md.) was used for this evaluation. Specially, a 96-well OsteoAssay™ plate was coated with a thin-layer of adherent human bone particles. Primary human osteoclast precursors, at a density of 10,000/200 μl of differentiation medium (containing M-CSF and RANK Ligand), were seeded onto the surface of the plate. Triplicate cell culture wells were treated with one of: Curcumin in DMSO; Vitamin K2 in ethanol; combination of Curcumin and Vitamin K2; and alendronate (control). Cell culture wells with only differentiation medium were treated as standard control wells. After six days of culture, old medium was removed and 200 μl of fresh basal resorption medium containing M-CSF and RANK Ligand was added to all wells. Forty-eight hours later, on day eight of culture, 10 μl of medium supernatant was used for calcifluor assay. […] The samples were briefly mixed and fluorescence was determined using a fluorimeter (Spectramax M5, available from Molecular Devices, Sunnyvale, Calif., with excitation at 551 nm and emission at 577 nm). The concentration of calcium in each well was calculated based on the standard curve. […] The relative percentage inhibition of bone resorption, with respect to standard control cells, was calculated and plotted on the bar graph as shown in FIG. 2.

Row | Compound | inhibition of osteoclast differentiation [1] | inhibition of bone resorption [2] [%]
1 | NCCCC(O)(P(=O)(O)O)P(=O)(O)O [Alendronate, reference compound] | 53.6% | –
2 | COc1cc(/C=C/C(=O)CC(=O)/C=C/c2ccc(O)c(OC)c2)ccc1O [Curcumin, (1E,6E)-1,7-bis(4-hydroxy-3-methoxyphenyl)-1,6-heptadiene-3,5-dione] | did not significantly inhibit | 39.7
3 | menaquinone [Vitamin K2] | did not significantly inhibit | 31.9
